This assay deals with dorsal forearm skin of healthy female Caucasian subjects. Briefly: In vivo biopsy (forearm patch, histology endpoints). The following applies: 0.05% active (positive control), semi-occlusion patch, 3 weeks. Set-up: species or system human. As for the experimental part:
Healthy female Caucasian subjects aged 30-65, with skin type II or III and mild to moderate photo damage, were treated on the dorsal forearm for 3 weeks (3 consecutive rounds of 5×24 hour) under semi-occlusion patches. Test articles including active ingredients, vehicle controls, and retinol were applied in a randomized allocation on 6 sites on each forearm. The application dose was 2 mg/cm^2. After 3 week treatment, a 2 mm punch biopsy was obtained from each treatment site and fixed in 10% buffered formalin. Tissue samples then embedded in paraffin, sectioned (5 μm thickness), and stained for skin markers after re-hydration. […] Retinol at a active concentration of 0.05% was used a positive control. Retinol use at a 0.05% active concentration in the semi-occlusion patch vehicle formulation yielded a visual score of approximately 0.56 out of a 4 point scale in HE staining (measuring hematoxylin and eosin staining, an indication of viable epidermal thickness and health) with 63.6% of the subjects showing an improvement; a visual score of 0.6 out of a 4 point scale in M-TC staining (Masson's trichrome staining, assessing total mature fiber-forming collagen in the dermis—mainly Collagen I, […] and Collagen V) with 51.6% of the subjects showing an improvement; a visual score of 0.52 out of a 4 point scale for pro-Col (measuring new synthesis of Collagen I by skin fibroblasts in the dermis) with 51.6% of the subjects showing an improvement; and a visual score of 0.57 out of a 4 point scale for HA (measuring level of hyaluronic acid in both dermis and epidermis) with 50% of the subjects showing an improvement.

From patent publication US20150366788A1, “[…] EXTRACTS AND METHODS OF USE” (AVON PRODUCTS, INC, priority 2013, published 2015) come the findings set out here.

As for `CC1=C(/C=C/C(C)=C/C=C/C(C)=C/CO)C(C)(C)CCC1` [Retinol], the “subjects showing an improvement, HA” value is recorded as 50%; the “subjects showing an improvement, HE staining” value amounted to 63.6%; the “subjects showing an improvement, M-TC staining” value is 51.6%; the “subjects showing an improvement, pro-Col” value is listed as 51.6%. For the same compound, under “out of a 4 point scale”, the “visual score HA (hyaluronic acid in dermis and epidermis)” value is listed as 0.57; the “visual score HE staining (viable epidermal thickness and health)” value is “approximately 0.56”; the “visual score M-TC staining (total mature fiber-forming collagen in dermis)” value is 0.6; the “visual score pro-Col (new synthesis of Collagen I)” value is listed as 0.52.
